Results as given in patent publication US20110160121A1, “UNACYLATED GHRELIN AND ANALOGS AS THERAPEUTIC AGENTS FOR VASCULAR REMODELING IN DIABETIC PATIENTS AND TREATMENT OF CARDIOVASCULAR DISEASE” (ALIZE PHARMA SAS, priority 2008, published 2011).
Where “and” joins values, the source holds several entries; their conditions need not be identical. Identical values can stand only once. Blank lines part the entries; values can stand above or below the molecule they belong to. *1 amine or outer side, *2 acyl side, *3 side chain or, on linkers, in order; H or OH if unused. Where no end group is shown, it is not given here. [ ]: non-standard residue; d: D form. The star is where a group is joined. 125I‑Tyr = O=C([C@H](Cc1ccc(O[*:3])c([125I])c1)N[*:1])[*:2]; Octanoyl = CCCCCCCC(=O)*; 125I = [125I]*

Columns and labels:
[1] = test system: CAC; assay: Detection of ROS in CAC (DCF-DA assay, FACS); type: cell-based, human; settings: for level of ROS production in AGE-cultured cells: AGE-cultured CAC, FIG. 1C, 1F; for baseline level of ROS production: CAC, compared to untreated cells, FIG. 1B, 1E
Protocol: First, cell-cycle progression in response to UAG and AG was evaluated. […] To investigate whether this effect relies on inhibition of baseline ROS production, DCF-DA assay was performed. […] H2O2 was used as positive control. AGE-mediated damage signals mainly rely on ROS production (Ref. 29). […] Detection of ROS—DCF-DA (0.5 μM final concentration) was added to CAC in the indicated culture conditions. At the indicated times, the cells were subjected to FACS analysis and processed as previously described (Ref. 22). H2O2 was used as positive control.

[2] = test system: human microvascular endothelial cells (HMVECs); settings: exogenous AG, Ref. 4; cited from earlier work
[3] = test system: cardiomyocytes; settings: Ref. 8; cited from earlier work
[4] = test system: CAC; assay: CAC mobilization assay in healthy subjects and diabetic patients; type: in vivo, human; settings: diabetic patients compared to normal subjects, treated for 6 hours; FIG. 3B
Protocol: This observation led to investigate the effect of UAG treatment on BM CAC mobilization. To this end, normal subject and diabetic patients were treated with UAG or saline for 6 hours. After treatment, CAC were recovered from 4 control subjects and 4 diabetic patients, analyzed by FACS analysis and counted. […] Black lines refer to preimmune IgG used as negative control and grey lines refer to surface marker expression. Similar results were obtained when CAC from untreated diabetic patients or untreated or treated healthy subjects were analyzed (data not shown).
All the subjects underwent the following testing session: • UAG (3.0 μg/kg/h iv. as infusion for 12 h from 0 to 12 hours); • isotonic saline (infusion from 0 to 12 hours).
Mobilization assay—CAC recovered from healthy subjects and diabetic patients, treated with UAG or saline for 6 h and 12 h, were evaluated. Total number of MNC was counted by 3 independent investigators. The percentage of CAC was calculated by comparing CAC obtained from diabetic patients and healthy donors, treated for 6 h and 12 h with UAG, AG or saline, to CAC recovered at time 0.

[5] = test system: CAC; assay: CAC cell-cycle progression (percentage of cells in S phase, FACS); type: cell-based, human; settings: cultured CAC; effect still evident after 7 days of culture; FIG. 1A
Protocol: First, cell-cycle progression in response to UAG and AG was evaluated. […] To investigate whether this effect relies on inhibition of baseline ROS production, DCF-DA assay was performed. […] H2O2 was used as positive control. AGE-mediated damage signals mainly rely on ROS production (Ref. 29). […] Isolation and Culture of CAC from Peripheral Blood Mononuclear Cells—Peripheral-blood mononuclear cells (PB-MNC) isolated by Fycoll Histopaque 1077 (Sigma) were resuspended in 20% FBS 199 Medium and plated on fibronectin-coated dishes (Biocoat, Becton Dickinson Labware) as described by Hill et al. (Ref. 19). Human UAG studies were performed on CAC recovered from normal donors and diabetic patients. The purity of sorted cells was assessed by FACS analysis (Ref. 20). For experiments, the isolated CAC were cultured under 5% CO2 at 37° C. for 4 days on 20 μg/ml fibronectin-coated dishes in EGM-2 medium containing 10% FBS, hydrocortisone, human Fibroblast Growth Factor, Vascular Endothelial Growth Factor, Insulin Growth Factor 1, ascorbic acid, human Epidermal Growth Factor, gentamicin and amphotericin-B (Cambrex, Walkersville, Md., USA) alone or in combination with 1 μM UAG and 1.2 mg/ml AGE. […] Cell surface molecules were evaluated by flow cytometry as previously described (Ref. 24). Frequency of marker-positive cells is expressed as mean±standard deviation (SD).

[6] = test system: human arteries; settings: Ref. 35; cited from earlier work
[7] = test system: human umbilical vein endothelial cells (HUVECs); settings: Ref. 5; cited from earlier work
[8] = test system: CAC; assay: Expansion (S phase) of CAC recovered from treated patients, cultured with IL-3; type: in vivo, human; settings: cells recovered from treated diabetic patients; FIG. 3C
Protocol: To confirm their vascular features, the cells recovered from patients and controls were cultured with IL-3; which is able to induce expansion and arterial morphogenesis of CD45^+ cells derived from both peripheral blood and BM (Ref. 28).
Flow Cytometry—To analyze CAC cell-cycle progression, cells recovered from diabetic, healthy subjects, NOD/SCID, ob/ob and wt mice, were cultured in EBM-2 supplemented with IL-3 (10 ng/ml), FACS analysis was performed as previously described (Ref. 20). Cell surface molecules were evaluated by flow cytometry as previously described (Ref. 24). Frequency of marker-positive cells is expressed as mean±standard deviation (SD).

[9] = test system: CAC membranes; assay: Competition binding with [125I-Tyr4]-UAG on CAC membranes; design: species or system human
Excerpt: The specific binding of [^125I-Tyr^4]-UAG (calculated as difference between binding in the absence, control, and in the presence of UAG) represented about 75% of the control value (P<0.001) and was detected either on fresh (0.25 and 0.26 fmol) or frozen-thawed (0.20 and 0.33 fmol) CAC membranes from two different cell preparations.

[10] = biological target: specific binding sites for UAG on CAC membranes; assay: radioligand binding, frozen-thawed CAC membranes, two cell preparations
[11] = biological target: specific binding sites for UAG on CAC membranes; assay: radioligand binding, fresh CAC membranes, two cell preparations
[12] = biological target: specific binding sites for UAG on CAC membranes; assay: radioligand binding to CAC membranes; difference between binding without and with 100 nM unlabelled UAG
[13] = biological target: specific binding sites for UAG on CAC membranes; assay: saturation binding on CAC membranes, Scatchard analysis
[14] = biological target: specific binding sites for UAG on CAC membranes; assay: saturation binding on CAC membranes

Molecule: AG: 28 amino acid peptide with an n-octanoyl modification on the Ser3 residue; endogenous ligand of GHSR (GSS(Octanoyl)FLSPEHQRVQQRKESKKPPAKLQPR) [reference compound]
level of ROS production in AGE-cultured cells [1]: no effects could be detected | intracellular ROS production in diabetic-recovered cells ([1]; CAC isolated from type 2 diabetic patients, treated in vitro, FIG. 1D): not AG, reduced intracellular ROS production | baseline level of ROS production [1]: A protective effect failed to be detected | cell proliferation, migration, in vitro angiogenesis and ERK2 phosphorylation [2]: significantly increased cell proliferation, migration, in vitro angiogenesis and ERK2 phosphorylation | inhibition of experimentally-induced cell death [3]: inhibit experimentally-induced cell death | number of recovered cells (CAC) [4]: No statistical differences were detected | percentage of cells in S phase [5]: not AG, was able to induce a significant increase | vasodilator action [6]: have vasodilator actions in human arteries | basal and TNF-alpha-induced chemotactic cytokine production and mononuclear cell adhesion [7]: inhibit basal and TNF-α-induced chemotactic cytokine production and mononuclear cell adhesion | cell expansion (cells in S phase) with IL-3 [8]: not from AG-treated diabetic patients, underwent cell expansion

Molecule: Ser-Pro-Glu-His-Gln-Arg-Val-Gln (SPEHQRVQ; not fully specified (C-terminus); printed as Ser-Pro-Glu-His-Gln-Arg-Val-Gln; listed as Homo sapiens) [UAG (6-13)]
level of ROS production in AGE-cultured cells [1]: the level of ROS production in AGE-cultured cells was reduced | baseline level of ROS production [1]: reduces the baseline level of ROS production | inhibition of binding of [125I-Tyr4]-UAG to CAC membranes ([9]; 100 nM competitor, 0.25 nM radioligand, FIG. 5A): inhibited

Second part, the molecule after the results:

specific binding of [125I-Tyr4]-UAG ([9]; difference between binding in the absence and in the presence of 100 nM UAG, P<0.001): about 75 % of the control value | specific binding of [125I-Tyr4]-UAG ([9]; fresh CAC membranes, two different cell preparations): 0.25 fmol and 0.26 fmol | specific binding of [125I-Tyr4]-UAG ([9]; frozen-thawed CAC membranes, two different cell preparations): 0.20 fmol and 0.33 fmol
Molecule: [^125I-Tyr^4]-UAG: radioligand used for binding to CAC membranes (GSS[125I‑Tyr]LSPEHQRVQQRKESKKPPAKLQPR)

specific binding [10]: 0.2 fmol and 0.33 fmol | specific binding [11]: 0.25 fmol and 0.26 fmol | specific binding (% of control value) [12]: 75% | Bmax (fmol/mg membrane protein) [13]: 10.7 | Kd [13]: 0.48 nM | concentration at maximum specific binding [14]: 2 nM
Molecule: GSSY(125I)LSPEHQRVQQRKESKKPPAKLQPR (ends and bridges not checked) [[125I-Tyr4]-UAG]
